Results reported in patent US20170182049A1, “NOVEL THERAPEUTICS FOR BRAIN CANCER” (The Regents of the University of California, priority 2012, published 2017).
Entries after “also recorded” stand apart in the source; their conditions may differ.

Experiments:
GBM4 cells = assay: GBM4 neurosphere viability (Alamar Blue); assay type: cell-based, human; conditions: grown as neurospheres, inhibitor given alone
Description: (§1) Culture and assay system: Ink4a/arfEGFR-VIII mouse cells and U87 human GBM cells were cultured in DMEM medium with 10% FBS. GBM4 and GBM8 patient-derived tumor neurosphere lines were cultured in stem cell medium supplemented with FGF and EGF. Primary normal human astrocytes (NHA) were cultured in astrocyte medium (Life Technologies, Grand Island N.Y.) with EGF. Cytotoxicity of the compounds was assessed by […] (MTT) reduction assay (for Ink4a/arfEGFR-VIII cells) as described earlier (Rajesh M et al., Journal of the American Chemical Society 129:11408-11420 (2007)) or by Alamar Blue assay (for all other cell types). For the MTT reduction assay, Ink4a/arfEGFR-VIII cells were grown in 96-well plates at a concentration of ˜2000 cells per well overnight and all assays were conducted in DMEM medium with 10% FBS and additives. […] Cell viability for Ink4a/arfEGFR VIII cells was quantified at 540 nm after the addition of MTT (Sigma-Aldrich). Results were expressed as: […]
(§2) For GBM4, GBM8, U87, and NHA cell lines, viability was quantified by Alamar Blue Assay. […] Emission values at 590 nm were measured after the addition of Alamar Blue. Dose-response curves for MTT assays and Alamar Blue Assays were plotted and IC50 values were calculated by using GraphPad Prism (GraphPad Prism Software, Inc., La Jolla, Calif.).

GBM8 cells = assay: GBM8 neurosphere viability (Alamar Blue); assay type: cell-based, human; conditions: grown as neurospheres, inhibitor given alone
Description: as §1, §2

U87 human GBM cells = assay: U87 viability (Alamar Blue); assay type: cell-based; conditions: for IC50, U87 viability: U87 express low amounts of Olig2
Description: (§3) Culture and assay system: Ink4a/arfEGFR-VIII mouse cells and U87 human GBM cells were cultured in DMEM medium with 10% FBS. GBM4 and GBM8 patient-derived tumor neurosphere lines were cultured in stem cell medium supplemented with FGF and EGF. Primary normal human astrocytes (NHA) were cultured in astrocyte medium (Life Technologies, Grand Island N.Y.) with EGF. Cytotoxicity of the compounds was assessed by […] (MTT) reduction assay (for Ink4a/arfEGFR-VIII cells) as described earlier (Rajesh M et al., Journal of the American Chemical Society 129:11408-11420 (2007)) or by Alamar Blue assay (for all other cell types). For the MTT reduction assay, Ink4a/arfEGFR-VIII cells were grown in 96-well plates at a concentration of ˜2000 cells per well overnight and all assays were conducted in DMEM medium with 10% FBS and additives. For studies with inhibitor compounds, 10 mM stocks were serially diluted in dimethyl sulfoxide and further diluted into culture media to give appropriate concentrations while minimizing precipitation associated with serial dilutions in medium alone. Inhibitors were added to cells and left in the media for 72 hours. Cell viability for Ink4a/arfEGFR VIII cells was quantified at 540 nm after the addition of MTT (Sigma-Aldrich). Results were expressed as: […]
(§4) For GBM4, GBM8, U87, and NHA cell lines, viability was quantified by Alamar Blue Assay. In this assay, cells were treated with inhibitor compounds as described and Alamar Blue added after 72 hours. Emission values at 590 nm were measured after the addition of Alamar Blue. Dose-response curves for MTT assays and Alamar Blue Assays were plotted and IC50 values were calculated by using GraphPad Prism (GraphPad Prism Software, Inc., La Jolla, Calif.).

[1] = system: normal human astrocytes (NHA); assay: primary astrocyte viability (Alamar Blue); assay type: cell-based; conditions: for IC50, primary astrocyte viability: astrocytes express low amounts of Olig2
Description: as §3, §4

GBM4 neurospheres = assay: GBM4 neurosphere formation, light microscopy; assay type: cell-based, human; conditions: 0.1 uM and 5 uM, 72 h
p21 = assay: expression of p21, direct genetic target of OLIG2 (qPCR); assay type: cell-based, human
Source text: (§5) FIGS. 17A-17B. OLIG2 inhibitor affects expression of direct genetic targets of OLIG2. […] (FIG. 17A) Escalating OLIG2 inhibitor doses led to increased levels of p21.
(§6) mRNA was extracted from different cell lines with the AllPrep DNA/RNA Mini Kit (Qiagen, Inc.), followed by cDNA synthesis using the iScript cDNA Synthesis Kit (Bio-Rad, Inc). To investigate single-gene expression patterns, individual gene primers were purchased from Allele Biotechnology and Pharmaceuticals Inc. SYBR Green Real Time PCR master mixes were purchased from Roche Corporation. qPCR was performed with primers specific for OLIG2, p21, and OMG genes. Individual gene expression was normalized to expression of beta-Actin. Histograms show mean and standard error of the mean (SEM) from three separate experiments.

OMG = assay: expression of OMG, direct genetic target of OLIG2 (qPCR); assay type: cell-based, human
Source text: as §5, §6

[2] = GBM4 cells, escalating doses (18 h in FIG. 17)

SMILES	suppression of GBM4 cells (GBM4 cells)	suppression of GBM8 cells (GBM8 cells)	IC50, U87 viability (U87 human GBM cells)	suppression of U87 cells (U87 human GBM cells; compared with GBM4/8 cells)	IC50 of NHA relative to GBM4 cells ([1]; NHA vs GBM4) [fold]	IC50, primary astrocyte viability [1]	inhibition of neurosphere formation in GBM4 cells (active / inactive compound) (GBM4 neurospheres)	expression of p21 (p21; [2])	expression of OMG (OMG; [2])	P21 levels (p21; FIG. 6, relative to vehicle control)	levels of OMG (OMG; FIG. 7, relative to vehicle control)
CCN1CCCC(Nc2cc(C)nc(NC(=N)Nc3ccc(Cl)c(Cl)c3)n2)C1 (stereo not shown) [SKOG-102]	markedly suppressed; also recorded: active	markedly suppressed; also recorded: active	high	a higher dose was needed	~20	high	active	increased in a dose-dependent manner	suppressed; also recorded: decline	–	–
CCN1CCCC(Nc2cc(C)nc(NC(=N)Nc3ccc(Cl)c(Cl)c3)n2)C1 (stereo not shown) [SKOG-101]	–	–	high	–	–	high	–	–	–	rose markedly	went down markedly
